Entries after “also recorded” stand apart in the source; their conditions may differ.
Tests used:
Smad2 and Smad5 = test: Smad phosphorylation by immunoblotting; assay type: cell-based, human; details: for Smad5 phosphorylation: 10 ng/mL, 1 hour; for phosphorylation of Smad2 and Smad5 (immunoblotting): HUVECs, 10 ng ml−1, 1 h
Description: (§1) Human umbilical vein endothelial cells (HUVEC) and human cutaneous microvascular endothelial cells (HCMEC) were provided by J. Bischoff (Children's Hospital Boston) and isolated as previously described^35. […] Cells were grown in culture using EGM-2 medium (Cambrex), containing 10% FBS and 1% Penicillin/Streptomycin, followed by human endothelial serum free medium (Gibco) 24 hours prior to all experimental conditions. Bone marrow derived mesenchymal stem cells (ScienCell Research Laboratories) were grown in mesenchymal stem cell medium (ScienCell Research Laboratories). Human corneal fibroblasts, from a stock initially provided by E. Hay (Harvard Medical School), were grown in RPMI medium, containing 10% FBS and 1% Penicillin/Streptomycin. Primary human osteoblasts, chondrocytes, and adipocytes and their respective growth media were obtained from Cell Applications Inc. Recombinant TGF-β2 and BMP4 proteins (R&D Systems) were added to the serum free culture medium for all relevant experiments at a concentration of 10 ng/mL. Cells were treated for 15 minutes to assess ALK2 phosphorylation, 1 hour to measure Smad5 phosphorylation, or 48 hours to induce EndMT. All experiments for this study were performed at minimum in triplicate.
(§2) Immunoassays were performed using the following antibodies at concentrations (and using protocols) recommended by the respective manufacturers: FSP-1 (H00006275-M01; Stressgen), ALK2 (sc-5671), Phospho-tyrosine (sc-7020), VE-cadherin (sc-6458), TIE2 (sc-324, sc-9026), STRO-1 (sc-47733), CD44 (sc-71220), CD90 (sc-9163), Osteocalcin (sc-74495, sc-23790), SOX9 (sc-20095), COL2A1 (sc-59958, sc-52658), PPARγ2 (sc-22022; Santa Cruz Biotechnology), vWF (ab68545; Abcam); His (A00174; GenScript); α-SMA (A5228), β-actin (A1978; Sigma-Aldrich). Samples were run with Criterion precast SDS-PAGE Gels (Bio-Rad). HRP-conjugated IgG TrueBlot reagents (18-8814, 18-8816, 18-8817; eBioscience) were used at a dilution of 1:1000. TrueBlot IgG beads (eBioscience) were used for immunoprecipitation experiments. Alexa Fluor secondary antibodies (Invitrogen) were used at a dilution of 1:200. Images were acquired using a Nikon 80i fluorescence microscope.
Human umbilical vein endothelial cells (HUVEC) and human cutaneous microvascular endothelial cells (HCMEC) isolated as previously described (35). […] Cells were grown in culture using EGM-2 medium (Cambrex), containing 10% FBS and 1% Penicillin/Streptomycin, followed by human endothelial serum free medium (Gibco) 24 h prior to all experimental conditions. Bone marrow derived mesenchymal stem cells (ScienCell Research Laboratories) were grown in mesenchymal stem cell medium (ScienCell Research Laboratories). Bone marrow derived hematopoietic stem cells (Lonza) were grown in HPGM medium (Lonza). Human corneal fibroblasts, from a stock provided by Dr. Elizabeth Hay (Harvard Medical School), were grown in RPMI medium, containing 10% FBS and 1% Penicillin/Streptomycin. Primary human osteoblasts, chondrocytes, and adipocytes and their respective growth media were obtained from Cell Applications, Inc. Recombinant TGF-β2, BMP4, and BMP7 proteins (R&D Systems) were added to the serum free culture medium for all relevant experiments at a concentration of 10 ng ml^−1. Recombinant VEGF (R&D Systems) was added to cultures at a concentration of 25 ng ml^−1. Dorsomorphin (Sigma-Aldrich) was added to cultures at a concentration of 5 μM.

HUVECs and HCMECs = test: In vivo multipotency: polylactic acid scaffolds with pre-treated endothelial cells implanted into nude mice; parameters: species or system immunodeficient nude mice; details: for co-expression of Qtracker label with osteocalcin, SOX9 or adiponectin in implants (immunohistochemistry): cells pre-labeled with quantum dots, pre-treated, implanted 6 weeks; for bone, cartilage or fat products in implanted scaffolds (alizarin red, alcian blue, oil red O): cells pre-treated, differentiation medium injected locally every 72 h for 6 weeks
Description: Cells were grown in StemPro osteogenic, chondrogenic, or adipogenic culture medium (Invitrogen). Alkaline phosphatase staining was performed using the alkaline phosphatase kit and protocol (Sigma-Aldrich) on cultures grown in osteogenic medium for 7 d to detect osteoblasts. Alizarin Red (Sigma-Aldrich) staining was performed for 30 min on cultures grown in osteogenic medium for 21 d to detect matrix calcification. Alcian Blue (Sigma) staining was used to stain chondrocyte proteoglycans for 5 minutes in cultures grown in chondrogenic medium for 14 d. Oil Red O (Sigma-Aldrich) staining was performed for 15 min on cultures grown in adipogenic medium for 7 d. For in vivo analysis, endothelial cells were labeled with fluorescent quantum dots using the Qtracker 525 Cell Labeling Kit (Invitrogen). Cells were treated in culture to induce EndMT then absorbed into OPLA polylactic acid scaffolds (BD Biosciences). Scaffolds were surgically implanted subcutaneously into immunodeficient nude mice (Nu/Nu strain; Charles River Laboratories). Local injection of StemPro differentiation medium (described above) was performed in the area of the implants every 72 h for 6 weeks. Scaffolds were cryosectioned and stained with Alizarin Red, Alcian Blue, or Oil Red O as described above. All procedures were reviewed and approved by the Institutional Animal Care and Use Committee at Harvard Medical School.

HUVEC and HCMEC = test: Mesenchymal stem cell marker expression in treated endothelial cells; assay type: cell-based, human; details: 10 ng/mL, 48 hours; for expression of mesenchymal stem cell genes CD10, CD13, CD44, CD73, CD90, CD120a, CD124 (real-time quantitative PCR): compared to control cells
Description: as §1, §2
(§3) Endothelial cells were stained in suspension using antibodies against TIE2, FSP-1, STRO-1, and His (described above) and the protocols provided by their respective manufacturer. Flow cytometry was performed at the Harvard Medical School, Department of Pathology flow cytometry core facility using a FACSDCalibur (BD Biosciences) cell sorter isolating 30,000 cells per sample.
(§4) RNA extractions were performed using the RNeasy Mini kit (Qiagen) and protocol. RNA samples were submitted to a core facility (Biopolymers Facility, Department of Genetics, Harvard Medical School) where real-time PCR experiments were conducted using the Syber Green PCR system (ABI) on an ABI 7500 cycler, with 40 cycles per sample. Cycling temperatures were as follows: denaturing 95° C.; annealing 60° C.; extension, 70° C. The following primers (Integrated DNA Technologies) were used: […]
(§5) Human umbilical vein endothelial cells (HUVEC) and human cutaneous microvascular endothelial cells (HCMEC) isolated as previously described (35). […] Cells were grown in culture using EGM-2 medium (Cambrex), containing 10% FBS and 1% Penicillin/Streptomycin, followed by human endothelial serum free medium (Gibco) 24 h prior to all experimental conditions.

[1] = system: Human umbilical vein endothelial cells (HUVECs) and human cutaneous microvascular endothelial cells (HCMECs); test: Endothelial-mesenchymal transition (EndMT) in endothelial cells: morphology, marker expression by immunoblotting, flow cytometry, real-time PCR, ELISA; assay type: cell-based; details: for FSP-1, α-SMA, and N-cadherin levels (immunoblotting) / VE-cadherin, CD31, and vWF levels (immunoblotting): 10 ng ml−1, 48 h; for EndMT-associated transcription factors Snail, Slug, ZEB-1, SIP-1, LEF-1, Twist (ELISA): 10 ng ml−1, compared to control cells; for FSP-1 and α-SMA levels (immunoblotting) / TIE-2 expression levels (immunoblotting) / VE-cadherin levels (immunoblotting) / co-staining for endothelial marker TIE2 and mesenchymal marker FSP-1 (fluorescence microscopy or flow cytometry) / expression of genes associated with EndMT (FSP-1, α-SMA, N-cadherin, fibronectin, Snail, Slug, ZEB-1, SIP-1, LEF-1, Twist), real-time quantitative PCR / cell morphology (DIC imaging): 10 ng/mL, 48 hours; for expression of genes associated with EndMT (FSP-1, α-SMA, N-cadherin, fibronectin, Snail, Slug, ZEB-1, SIP-1, LEF-1, Twist), real-time quantitative PCR: compared to control cells; for cell morphology (DIC imaging): serum free medium
Description: as §1, §2, §3, §4, §5

Substance	Smad5 phosphorylation (Smad2 and Smad5)	phosphorylation of Smad2 and Smad5 (immunoblotting) (Smad2 and Smad5)	co-expression of Qtracker label with osteocalcin, SOX9 or adiponectin in implants (immunohistochemistry) (HUVECs and HCMECs)	bone, cartilage or fat products in implanted scaffolds (alizarin red, alcian blue, oil red O) (HUVECs and HCMECs)	STRO-1 and other mesenchymal stem cell markers (immunoblotting) (HUVEC and HCMEC)	co-expression of TIE2 and mesenchymal stem cell marker STRO-1 (immunofluorescence microscopy or flow cytometry) (HUVEC and HCMEC)	expression of mesenchymal stem cell genes CD10, CD13, CD44, CD73, CD90, CD120a, CD124 (real-time quantitative PCR) (HUVEC and HCMEC)	effect on EndMT (stimulation) [1]	FSP-1, α-SMA, and N-cadherin levels (immunoblotting) [1]	VE-cadherin, CD31, and vWF levels (immunoblotting) [1]	EndMT-associated transcription factors Snail, Slug, ZEB-1, SIP-1, LEF-1, Twist (ELISA) [1]	FSP-1 and α-SMA levels (immunoblotting) [1]	TIE-2 expression levels (immunoblotting) [1]	VE-cadherin levels (immunoblotting) [1]	co-staining for endothelial marker TIE2 and mesenchymal marker FSP-1 (fluorescence microscopy or flow cytometry) [1]	expression of genes associated with EndMT (FSP-1, α-SMA, N-cadherin, fibronectin, Snail, Slug, ZEB-1, SIP-1, LEF-1, Twist), real-time quantitative PCR [1]	cell morphology (DIC imaging) [1]	VE-cadherin, FSP-1, CD44, CD90 expression in clonal populations (multiplex ELISA) ([1]; three clonal populations of HUVEC and HCMEC, 48 h)
TGF-β2: Recombinant TGF-β2 protein (R&D Systems), ALK2 activating ligand, used at 10 ng/mL	phosphorylated	promoted phosphorylation of both Smad2 and Smad5	co-expression of the Qtracker with osteocalcin, SOX9, or adiponectin	formation of bone, cartilage, or fat products	strongly expressed	strong co-expression; also recorded: massive co-expression	greatly increased	stimulators of EndMT; also recorded: stimulate EndMT	increased	decreased	much higher	increased	remained unchanged; also recorded: remain constant	significantly decreased	staining for both	much higher	distinct change from cobblestone-like endothelial cell morphology to fibroblast-like morphology	decreased expression of VE-cadherin and increased expression of FSP-1, CD44, and CD90
BMP4: Recombinant BMP4 protein (R&D Systems), ALK2 activating ligand, used at 10 ng/mL	phosphorylated	promoted phosphorylation of both Smad2 and Smad5	co-expression of the Qtracker with osteocalcin, SOX9, or adiponectin	formation of bone, cartilage, or fat products	strongly expressed	strong co-expression; also recorded: massive co-expression	greatly increased	stimulators of EndMT; also recorded: stimulate EndMT	increased	decreased	much higher	increased	remained unchanged; also recorded: remain constant	significantly decreased	staining for both	much higher	distinct change from cobblestone-like endothelial cell morphology to fibroblast-like morphology	

— US20130078718A1, “CONVERSION OF VASCULAR ENDOTHELIAL CELLS INTO MULTIPOTENT STEM-LIKE CELLS” (PRESIDENT AND FELLOWS OF HARVARD COLLEGE, priority 2010, published 2013)
